This test has as its target T1, full-length human PKCι (Homo sapiens, UniProt P41743).
T1 construct: Recombinant, full-length human PKCι expressed in Sf21 insect cells is also commercially available; purchased; host or cells: Sf21 insect cells
T1 sequence (P41743 1-596): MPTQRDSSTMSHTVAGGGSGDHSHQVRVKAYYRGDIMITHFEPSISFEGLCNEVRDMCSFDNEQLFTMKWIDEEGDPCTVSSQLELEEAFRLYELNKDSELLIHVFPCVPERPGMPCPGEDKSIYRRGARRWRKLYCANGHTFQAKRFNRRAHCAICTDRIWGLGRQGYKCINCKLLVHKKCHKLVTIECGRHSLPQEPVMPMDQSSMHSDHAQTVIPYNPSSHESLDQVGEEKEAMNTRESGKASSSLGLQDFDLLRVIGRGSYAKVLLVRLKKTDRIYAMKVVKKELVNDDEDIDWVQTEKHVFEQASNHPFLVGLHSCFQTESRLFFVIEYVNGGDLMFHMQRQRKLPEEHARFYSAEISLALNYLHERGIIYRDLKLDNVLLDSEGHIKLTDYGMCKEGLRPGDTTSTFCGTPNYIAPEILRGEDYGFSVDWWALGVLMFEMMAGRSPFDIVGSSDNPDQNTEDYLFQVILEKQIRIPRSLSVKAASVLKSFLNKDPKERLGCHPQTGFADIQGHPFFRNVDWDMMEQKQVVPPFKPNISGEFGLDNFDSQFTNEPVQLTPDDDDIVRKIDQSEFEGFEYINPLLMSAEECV
Nature of the test: PKCι IC50 IMAP assay, full-length PKCι at 150 μM ATP. The following applies: read-out: IC50 in IMAP assay against full length PKCi at 150 μM ATP. The test is classed as biochemical. The method in brief:
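Phosphorylation of a 5FAM-tagged PKCε pseudopeptide-derived substrate (100 nM) by full-length recombinant human PKCι was monitored by IMAP fluorescence polarisation. ATP was held at 150 μM, five times its apparent KM, with 60 min room-temperature incubation.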

The record followed here is patent US9914730B2, “Azaquinazoline inhibitors of Atypical protein Kinase C” (Ignyta, Inc., priority 2012, dated 2018).

`CCc1ccc(Nc2cc(-c3nc(N4CCNCC4)c4c(C5CC5)cncc4n3)ccn2)c(F)c1` [Example 717, [4-(5-Cyclopropyl-4-piperazin-1-yl-pyrido[3,4-d]pyrimidin-2-yl)-pyridin-2-yl]-(4-ethyl-2-fluoro-phenyl)-amine]: the IC50 was less than 0.1 µM. With `CCOc1cccc(-c2nccc3c(NC[C@@H](N)Cc4ccccc4)nc(-c4ccncc4)nc23)c1` [Example 117, N-[(2S)-2-amino-3-phenylpropyl]-8-(3-ethoxy-phenyl)-2-(pyridin-4-yl)-pyrido[3,4-d]-pyrimidin-4-amine] the figure was 1 to 10 µM; with `Cc1c2ccc(Nc3cc(-c4nc(N5CCNCC5)c5c(C6CC6)cncc5n4)ccn3)cc2nn1C` [Example 493, [4-(5-Cyclopropyl-4-piperazin-1-yl-pyrido[3,4-d]pyrimidin-2-yl)-pyridin-2-yl]-(2,3-dimethyl-2H-indazol-6-yl)-amine], less than 0.1 µM; with `COc1cncc2nc(-c3ccnc(NC(=O)Cc4cccc(C(F)(F)F)c4)c3)nc(N3CCNCC3)c12` [Example 373, N-[4-(5-Methoxy-4-piperazin-1-yl-pyrido[3,4-d]pyrimidin-2-yl)-pyridin-2-yl]-2-(3-trifluoromethyl-phenyl)-acetamide], less than 0.1 µM. With `Fc1cc(Nc2cc(-c3nc(N4CCNCC4)c4c(C5CC5)cncc4n3)ccn2)c(F)c(F)n1` [Example 682, [4-(5-Cyclopropyl-4-piperazin-1-yl-pyrido[3,4-d]pyrimidin-2-yl)-pyridin-2-yl]-(2,3,6-trifluoro-pyridin-4-yl)-amine] the figure was 0.1 to 1 µM; with `Fc1cccc(F)c1Nc1cc(-c2nc(NC3CCCNCC3)c3c(C4CC4)cncc3n2)ccn1` (stereo not shown) [Example 2058, Azepan-4-yl-{5-cyclopropyl-2-[2-(2,6-difluoro-phenylamino)-pyridin-4-yl]-pyrido[3,4-d]pyrimidin-4-yl}-amine], less than 0.1 µM. To `COc1ncccc1Nc1cc(-c2nc(N3CCNCC3)c3c(C4CC4)cncc3n2)ccn1` [Example 513, [4-(5-Cyclopropyl-4-piperazin-1-yl-pyrido[3,4-d]pyrimidin-2-yl)-pyridin-2-yl]-(2-methoxy-pyridin-3-yl)-amine] belongs less than 0.1 µM; to `Clc1c[nH]c2nccc(-c3nc(N4CCNCC4)c4c(C5CC5)cncc4n3)c12` [Example 2087, 2-(3-Chloro-1H-pyrrolo[2,3-b]pyridin-4-yl)-5-cyclopropyl-4-piperazin-1-yl-pyrido[3,4-d]pyrimidine], less than 0.1 µM. For the compound `COc1cc(N2CCOCC2)ccc1Nc1cc(-c2nc(N3CCNCC3)c3c(OC)cncc3n2)ccn1` [Example 359, (2-Methoxy-4-morpholin-4-yl-phenyl)-[4-(5-methoxy-4-piperazin-1-yl-pyrido[3,4-d]pyrimidin-2-yl)-pyridin-2-yl]-amine], the IC50 fell in the range of 0.1 to 1 µM. To `CS(=O)(=O)N[C@H](CNc1nc(-c2ccncc2)nc2cnccc12)Cc1ccccc1` [Example 83, N-(1-phenyl-3-{[2-(pyridin-4-yl)pyrido[3,4-d]pyrimidin-4-yl]amino}propan-2-yl)methanesulfonamide] belongs 10 to 40 µM; to `CC(C)(c1cc2c(-c3nc(N4CCNCC4)c4c(C5CCC5)cncc4n3)ccnc2[nH]1)C(F)(F)F` [Example 2182, 5-Cyclobutyl-4-piperazin-1-yl-2-[2-(2,2,2-trifluoro-1,1-dimethyl-ethyl)-1H-pyrrolo[2,3-b]pyridin-4-yl]-pyrido[3,4-d]pyrimidine], less than 0.1 µM; to `FC(F)(F)c1ccc(Nc2cc(-c3nc(N4CCNCC4)c4c(C5CC5)cncc4n3)ccn2)nc1` [Example 827, [4-(5-Cyclopropyl-4-piperazin-1-yl-pyrido[3,4-d]pyrimidin-2-yl)-pyridin-2-yl]-(5-trifluoromethyl-pyridin-2-yl)-amine], less than 0.1 µM. With `CC(=O)N[C@H](CNc1nc(-c2ccncc2)nc2cnccc12)Cc1ccccc1` [Example 79, N—[(S)-1-Benzyl-2-(2-pyridin-4-yl-pyrido[3,4-d]pyrimidin-4-ylamino)-ethyl]-acetamide] the figure was 10 to 40 µM; with `c1cc(-c2nc(N3CCNCC3)c3c(C4CC4)cncc3n2)cc(N[C@H]2CCOC2)n1` [Example 518, [4-(5-Cyclopropyl-4-piperazin-1-yl-pyrido[3,4-d]pyrimidin-2-yl)-pyridin-2-yl]-(S)-tetrahydro-furan-3-yl-amine], less than 0.1 µM. To `COc1cncc2nc(N3CCOCC3)nc(N3CCN[C@@H](COc4ccccc4F)C3)c12` [Example 1008, 4-[(R)-3-(2-Fluoro-phenoxymethyl)-piperazin-1-yl]-5-methoxy-2-morpholin-4-yl-pyrido[3,4-d]pyrimidine] belongs 0.1 to 1 µM; to `O=C(Cc1c(F)cccc1F)Nc1cc(-c2nc(N3CCNCC3)c3c(C4CC4)cncc3n2)ccn1` [Example 639, N-[4-(5-Cyclopropyl-4-piperazin-1-yl-pyrido[3,4-d]pyrimidin-2-yl)-pyridin-2-yl]-2-(2,6-difluoro-phenyl)-acetamide], less than 0.1 µM. Turning to “{4-[5-Cyclopropyl- 4-((R)-3- fluoromethyl- piperazin-1- yl)-pyrido[3,4-d]- pyrimidin-2-yl]- pyridin-2-yl}-(6- fluoro-pyridin-2- yl)-amine [Example 512]”, the IC50 was less than 0.1 µM.

With `NC(=O)C1CCN(c2nc(-c3ccnc(Nc4c(F)cccc4F)c3)nc3cncc(C4CC4)c23)CC1` [Example 656, 1-{5-Cyclopropyl-2-[2-(2,6-difluoro-phenylamino)-pyridin-4-yl]-pyrido[3,4-d]pyrimidin-4-yl}-piperidine-4-carboxylic acid amide], the half-maximal inhibitory concentration (IC50) fell in the range of 0.1 to 1 µM.

As to `CN(c1nc(-c2ccnc(Nc3c(F)cccc3F)c2)nc2cncc(C3CC3)c12)C1CCN(C2CCC2)CC1` [Example 2110, (1-Cyclobutyl-piperidin-4-yl)-{5-cyclopropyl-2-[2-(2,6-difluoro-phenylamino)-pyridin-4-yl]-pyrido[3,4-d]pyrimidin-4-yl}-methyl-amine], the IC50 is 0.1 to 1 µM.

Turning to `CN(C)CCOc1nc(-c2ccnc(Nc3c(F)cccc3F)c2)nc2cncc(C3CC3)c12` [Example 826, {4-[5-Cyclopropyl-4-(2-dimethylamino-ethoxy)-pyrido[3,4-d]pyrimidin-2-yl]-pyridin-2-yl}-(2,6-difluoro-phenyl)-amine], the 50% inhibitory concentration (IC50) lay within 0.1 to 1 µM. To `c1ccc2c(c1)CC[C@H]2Nc1cc(-c2nc(N3CCNCC3)c3c(C4CC4)cncc3n2)ccn1` [Example 2098, [4-(5-Cyclopropyl-4-piperazin-1-yl-pyrido[3,4-d]pyrimidin-2-yl)-pyridin-2-yl]-(R)-indan-1-yl-amine] belongs less than 0.1 µM; to `CN(CC1CCNCC1)c1nc(-c2ccnc3[nH]c(C(F)(F)F)cc23)nc2cncc(C3CC3)c12` [Example 2139, [5-Cyclopropyl-2-(2-trilfuoromethyl-1H-pyrrolo[2,3-b]pyridin-4-yl)-pyrido[3,4-d]pyrimidin-4-yl]-methyl-piperidin-4-ylmethyl-amine], less than 0.1 µM; to `Fc1cccc(Nc2cc(-c3nc(N4CCNC(C(F)(F)F)C4)c4c(C5CC5)cncc4n3)ccn2)n1` (stereo not shown) [Example 268, {4-[5-Cyclopropyl-4-(3-trifluoromethyl-piperazin-1-yl)-pyrido[3,4-d]pyrimidin-2-yl]-pyridin-2-yl}-(6-fluoro-pyridin-2-yl)-amine], 0.1 to 1 µM.

Take `COc1cncc2nc(-c3ccnc(NC(=O)C4CC4)c3)nc(N3CCC(O)CC3)c12` [Example 234, Cyclo-propane-carboxylic acid {4-[4-(4-hydroxy-piperidin-1-yl)-5-methoxy-pyrido[3,4-d]pyrimidin-2-yl]-pyridin-2-yl}-amide]: the IC50 fell in the range of 0.1 to 1 µM. To `COc1cncc2nc(-c3ccnc(NC(=O)C4CC4)c3)nc(N3CCNCC3)c12` [Example 216, Cyclo-propane-carboxylic acid[4-(5-methoxy-4-piperazin-1-yl-pyrido[3,4-d]pyrimidin-2-yl)-pyridin-2-yl]-amide] belongs less than 0.1 µM; to `Fc1cccc(Nc2cc(-c3nc(N4CCNCC4)c4c(Cl)cncc4n3)ccn2)n1` [Example 253, [4-(5-Chloro-4-piperazin-1-yl-pyrido[3,4-d]pyrimidin-2-yl)-pyridin-2-yl]-(6-fluoro-pyridin-2-yl)-amine], less than 0.1 µM; to `O=C(Cc1ccccc1)Nc1cc(-c2nc(N3CCNCC3)c3c(C4CC4)cncc3n2)ccn1` [Example 612, N-[4-(5-Cyclopropyl-4-piperazin-1-yl-pyrido[3,4-d]pyrimidin-2-yl)-pyridin-2-yl]-2-phenyl-acetamide], less than 0.1 µM. On to `C[C@@H](Nc1cc(-c2nc(N3CCNCC3)c3c(C4CC4)cncc3n2)ccn1)c1ccccc1F` [Example 2067, [4-(5-Cyclopropyl-4-piperazin-1-yl-pyrido[3,4-d]pyrimidin-2-yl)-pyridin-2-yl]-[(R)-1-(2-fluoro-phenyl)-ethyl]-amine], for which the concentration for half-maximal inhibition (IC50) is less than 0.1 µM.

A word on the IC50: it is the concentration that gives 50% inhibition.
